We go through two compounds from patent publication US8314140B2, “4-hydroxythiobenzamide derivatives of drugs” (Antibe Therapeutics Inc., priority 2006, dated 2012).

Assay [1] concerns leukocyte adherence to the vascular endothelium. The experiment in a line: Aspirin-induced leukocyte adherence, intravital microscopy of mesenteric venules. Type of assay: in vivo, rat. The conditions noted are these: FIG. 5. How it is done: Leukocyte adherence was studied using intravital microscopy, as described in detail previously (Wallace et al., (1993) Am. J. Physiol. 265: 993-998, incorporated hereto by reference). Rats were anesthetized with pentobarbital sodium (60 mg/kg i.p.) and cautery incisions were made along the abdominal region. A tracheotomy was performed to facilitate breathing. The rats were placed in a supine position, and a segment of the mesentery was exteriorized through the abdominal incision. The mesentery was carefully placed over an optically clear viewing pedestal that allowed for trans-illumination of a 2-cm^2 segment of tissue. All exposed tissue was covered with saline-soaked gauze to minimize dehydration. […] A video camera mounted on the microscope (Panasonic™ digital 5000) projected the image onto a monitor, and the images were recorded for playback analysis using a videocassette recorder. Images of the mesenteric microcirculation were recorded 5 minutes prior to aspirin administration (baseline), at the time of aspirin administration (time 0-5) and every 15 minutes for 60 minutes. Leukocyte adherence was blindly quantified from videotaped images of the vessels made over 5-min periods as the number of leukocytes that remained stationary along the vessel wall for 30 s or more (expressed per 100 μm venule length). […]

In another assay the test system is TNBS-induced colitis. Put plainly: TNBS-induced colitis in mice (disease activity score, MPO activity). In kind it is in vivo. The conditions noted are these: oral 100 mg/kg every 12 h for 5 days. How it is done:
A standard experimental animal model of colitis induced by intracolonic administration of 2,4,6-trinitrobenzene sulfonic acid (TNBS) to mice is used in the following example. A detailed description of this model has been published (Santucci et al. (2003) Gastroenterology 124:1381-94) and is incorporated herein by reference. Briefly, 6-8 week old Balb/c mice were given TNBS intracolonically at a dose of 1.5 mg in 0.1 mL of 30% ethanol. The mice were randomized to the various treatment groups (n=6 per group). Beginning one hour later and continuing every 12 h for 5 days, the mice were treated orally with vehicle (1% carboxymethylcellulose (CMC)), 5-ASA (mesalamine) alone (100 mg/kg), 4-hydroxythiobenzamide (referred to in the Figures as 4-HTB) (100 mg/kg), 5-amino-2-(4-thiocarbamoyl-phenoxycarbonyloxy)-benzoic acid (100 mg/kg) (referred to hereinafter as Compound XXVII) and equimolar doses of mesalamine (50 mg/kg) and (4-HTB) (50 mg/kg). *p<0.05 versus the vehicle-treated group. Each group consisted of at least 5 rats.
The mice were evaluated (blindly) on the final day of the study for the presence of diarrhea and fecal occult blood, and their body weights were measured. […] After sacrifice, a sample of the colon was excised for measurement of myeloperoxidase (MPO) activity, as a marker of granulocyte infiltration. All results were compared to those obtained with healthy mice as well.

The next assay deals with COX-1 and/or COX-2. Put plainly: Gastric prostaglandin E2 synthesis. In kind it is in vivo, rat. The conditions noted are these: oral, 3 h; diclofenac 20 mg/kg or equimolar doses; FIG. 9. How it is done: Briefly, the tissue samples were minced with scissors for 30 min, then placed in 1 mL of sodium phosphate buffer (pH 7.4) and placed in a shaking water bath (37° C.) for 20 min.

Another assay deals with gastric ulcers. The experiment in a line: Healing of acetic acid-induced gastric ulcers. Type of assay: in vivo, rat. The conditions noted are these: oral twice-daily for 4 days; 30 μmol/kg (naproxen, Compound XX 60 μmol/kg); FIG. 17. As for the experimental part: Gastric ulcers were induced via serosal application of acetic acid, as described by Elliott et al., A nitric oxide-releasing nonsteroidal anti-inflammatory drug accelerates gastric ulcer healing in rats. […] After 4 days of such treatment, the rats were euthanized and the stomach was excised and photographed. The area (in mm^2) of the ulcer was determined planimetrically by an individual unaware of the treatments given to the rats.

The next assay has as its target T1, COX-2 (Rattus norvegicus, UniProt P35355).
T1 construct: from tissue; host or cells: rat subcutaneous airpouch exudate, in vivo, zymosan-induced
T1 sequence (P35355 18-604): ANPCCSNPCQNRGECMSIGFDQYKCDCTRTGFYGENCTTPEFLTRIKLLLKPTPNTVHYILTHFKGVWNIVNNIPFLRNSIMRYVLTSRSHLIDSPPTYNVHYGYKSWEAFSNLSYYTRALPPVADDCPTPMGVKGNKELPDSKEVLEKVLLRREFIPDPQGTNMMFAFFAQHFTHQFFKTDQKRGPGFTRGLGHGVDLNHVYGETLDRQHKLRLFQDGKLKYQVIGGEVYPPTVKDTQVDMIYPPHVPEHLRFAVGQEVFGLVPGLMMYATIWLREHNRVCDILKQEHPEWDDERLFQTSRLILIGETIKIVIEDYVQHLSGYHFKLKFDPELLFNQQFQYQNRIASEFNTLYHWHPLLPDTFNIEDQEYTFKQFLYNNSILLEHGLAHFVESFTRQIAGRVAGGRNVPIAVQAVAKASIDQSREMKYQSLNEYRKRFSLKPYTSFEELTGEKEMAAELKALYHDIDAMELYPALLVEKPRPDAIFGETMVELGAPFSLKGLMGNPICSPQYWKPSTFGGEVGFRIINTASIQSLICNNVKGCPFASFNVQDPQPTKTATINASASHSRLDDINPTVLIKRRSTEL
The experiment in a line: Rat airpouch assay, exudate PGE2 after zymosan. Type of assay: in vivo. The conditions noted are these: oral 30 min before; diclofenac 3 mg/kg, Compound XVII 4.1 mg/kg; FIG. 12. How it is done:
Briefly, a subcutaneous “pouch” is created by repeated injections of air over several days. Once established, inflammation in the pouch can be induced by injection of 1 mL of 1% zymosan. […] Another group of 5 rats was treated with the vehicle, but received an injection of 0.9% sterile saline into the pouch rather than zymosan.
Each group consisted of 5 rats.

Take “5-amino-2-(4-thiocarbamoyl-phenoxycarbonyloxy)-benzoic acid [Compound XXVII]”: the “leukocyte adherence at 60-65 minutes” value in assay [1] (100 mg/kg intragastrically 60 min prior to aspirin) was “suppress aspirin-induced leukocyte adherence”. Besides, in assay [1] (glibenclamide 10 mg/kg i.p. 30 min prior, aspirin), the “leukocyte adherence at 60-65 minutes after glibenclamide pretreatment” value was “reverse this inhibitor effect on leukocyte adherence”. In the assay on TNBS-induced colitis (FIG. 1), the “Disease Activity Score” value was “almost three times as effective”. The “myeloperoxidase (MPO) activity (granulocyte infiltration)” value with TNBS-induced colitis (colon sample, FIG. 2) is “significantly reduced inflammation”.

On to `NC(=S)c1ccc(O)cc1` [4-hydroxythiobenzamide], for which the “gastric PGE2 synthesis” value in the assay with COX-1 and/or COX-2 was “did not reduce gastric PGE2 synthesis”. Besides, the “gastric ulcer healing (ulcer surface area)” value in the assay on gastric ulcers is given as “did not significantly affect the healing of gastric ulcers”. Also, the “exudate PGE2 in the pouch (COX-2 activity)” value on COX-2 is “did not significantly affect COX-2 activity”.
